Columns and labels:
Factor XIa = Factor XIa (Homo sapiens, UniProt P03951); experiment: Factor XIa inhibition assay utilizing a fluorophore-quencher pair peptide substrate (FLINT); format: biochemical; settings: 11-point, 3-fold serial dilution, top 100 nM; 30 min preincubation; 15 μM 5Fam-KLTRAETV-K5Tamra substrate; kinetic reads over 30 min; read-out: FXIa Inhibition IC50
In short: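 FXIa ([…]) preincubated 30 min with compound (11-point, 3-fold, top 100 nM, 2% DMSO) in Tris pH 7.5, NaCl, CaCl2, BSA, CHAPS; 15 μM 5Fam-KLTRAETV-K5Tamra substrate then added. Fluorescence (485/520 nm) read kinetically over 30 min at room temperature; IC50 by 4-parameter fit.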

human plasma kallikrein = human plasma kallikrein (Homo sapiens, UniProt P03952); experiment: Kallikrein inhibition assay utilizing a quenched AMC peptide substrate (FLINT); format: biochemical; settings: 11-point, 3-fold serial dilution, top 1 μM; 30 min preincubation; 2 nM kallikrein; 50 μM Z-Gly-Pro-Arg-AMC; kinetic reads over 30 min
Sequence of human plasma kallikrein (P03952 391-638 limits assumed): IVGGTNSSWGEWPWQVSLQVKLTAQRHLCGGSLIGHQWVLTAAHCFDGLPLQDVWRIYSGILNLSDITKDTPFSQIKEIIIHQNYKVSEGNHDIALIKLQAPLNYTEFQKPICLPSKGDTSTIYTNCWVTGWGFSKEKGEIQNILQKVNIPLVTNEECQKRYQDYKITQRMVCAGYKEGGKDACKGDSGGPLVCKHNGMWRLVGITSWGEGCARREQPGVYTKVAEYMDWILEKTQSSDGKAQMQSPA
Sequence of human plasma kallikrein (P03952 20-390 partner limits assumed): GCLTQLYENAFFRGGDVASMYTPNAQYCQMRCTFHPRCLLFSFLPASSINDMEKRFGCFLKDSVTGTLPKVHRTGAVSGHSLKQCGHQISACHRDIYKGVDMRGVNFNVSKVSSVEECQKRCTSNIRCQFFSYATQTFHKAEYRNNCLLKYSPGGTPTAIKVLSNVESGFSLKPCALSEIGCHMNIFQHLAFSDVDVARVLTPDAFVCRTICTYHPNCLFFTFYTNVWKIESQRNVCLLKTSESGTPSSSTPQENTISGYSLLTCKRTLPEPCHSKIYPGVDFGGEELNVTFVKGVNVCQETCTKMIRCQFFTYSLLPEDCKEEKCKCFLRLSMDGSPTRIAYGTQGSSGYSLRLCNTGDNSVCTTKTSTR
In short: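 Human plasma kallikrein (2 nM final) was pre-incubated 30 min at room temperature with compound (11-point 3-fold series, top 1 μM, 2% DMSO) in Tris pH 7.5, NaCl, CaCl2, BSA, CHAPS buffer. Reaction started with 50 μM Z-Gly-Pro-Arg-AMC (KM 40 μM), and fluorescence (340/440 nm) was read kinetically over 30 min. IC50 came from a 4-parameter logistic fit.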

Sequence of Factor XIa (P03951 388-625 limits assumed): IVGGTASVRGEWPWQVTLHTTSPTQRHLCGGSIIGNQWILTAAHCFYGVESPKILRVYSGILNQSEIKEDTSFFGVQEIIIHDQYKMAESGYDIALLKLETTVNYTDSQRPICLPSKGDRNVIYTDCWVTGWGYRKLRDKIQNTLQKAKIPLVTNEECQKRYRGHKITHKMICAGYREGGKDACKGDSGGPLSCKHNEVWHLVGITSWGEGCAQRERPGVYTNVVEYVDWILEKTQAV
Sequence of Factor XIa (P03951 19-387 partner limits assumed): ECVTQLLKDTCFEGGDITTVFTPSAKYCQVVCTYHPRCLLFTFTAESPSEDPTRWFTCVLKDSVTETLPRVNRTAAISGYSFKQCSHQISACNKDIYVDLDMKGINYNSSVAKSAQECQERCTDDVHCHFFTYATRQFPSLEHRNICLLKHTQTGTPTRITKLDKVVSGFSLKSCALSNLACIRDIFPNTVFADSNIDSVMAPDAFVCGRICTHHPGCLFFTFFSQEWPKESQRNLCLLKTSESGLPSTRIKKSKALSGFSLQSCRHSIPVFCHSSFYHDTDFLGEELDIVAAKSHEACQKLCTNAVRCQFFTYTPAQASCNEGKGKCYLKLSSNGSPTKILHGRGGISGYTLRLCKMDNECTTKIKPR

| SMILES | IC50 (Factor XIa) | IC50 (human plasma kallikrein) |
| --- | --- | --- |
| O=C(Nc1ccc(-c2nc(=O)o[nH]2)c(F)c1)[C@@H]1CC[C@H]2CC(c3c(-n4cnnn4)ccc(Cl)c3F)=CC(=O)N21 (single isomer, unassigned) [ID No. 36, (3S,8aS*)-7-(3-Chloro-2-fluoro-6-(1H-tetrazol-1-yl)phenyl)-N-(3-fluoro-4-(5-oxo-2,5-dihydro-1,2,4-oxadiazol-3-yl)phenyl)-5-oxo-1,2,3,5,8,8a-_hexahydroindolizine-3-carboxamide] | 0.4 nM | 8.8 nM |
| O=C(Nc1ccc2nc[nH]c(=O)c2c1)[C@@H]1CC[C@@H]2CC(c3c(-n4cnnn4)ccc(Cl)c3F)=CC(=O)N21 [ID No. 18, (3S,8aR)-7-(3-Chloro-2-fluoro-6-(1H-tetrazol-1-yl)phenyl)-5-oxo-N-(4-oxo-3,4-dihydroquinazolin-6-yl)-1,2,3,5,8,8a-hexahydroindolizine-3-carboxamide] | 6.1 nM | 9.2 nM |
| COCCn1cc2cc(NC(=O)C3CCC4CC(c5c(-n6cnnn6)ccc(Cl)c5F)=CC(=O)N43)ccc2n1 (single isomer, unassigned) [ID No. 3, (3S*)-7-(3-chloro-2-fluoro-6-(1H-tetrazol-1-yl)phenyl)-N-(2-(2-methoxyethyl)-2H-indazol-5-yl)-5-oxo-1,2,3,5,8,8a-hexahydroindolizine-3-carboxamide] | 6 nM | 35.6 nM |
| CO[C@@H]1C[C@@H](C(=O)Nc2ccc3nn(C)cc3c2)N2C(=O)C=C(c3c(-n4cnnn4)ccc(Cl)c3F)CC12 (mixture of isomers) [ID No. 44, (1R,3S)-7-[3-Chloro-2-fluoro-6-(tetrazol-1-yl)phenyl]-1-methoxy-N-(2-methyl-2H-indazol-5-yl)-5-oxo-2,3,8,8a-tetrahydro-1H-indolizine-3-carboxamide] | 10.9 nM | 31.4 nM |
| COCCNC(=O)c1ccc(NC(=O)[C@@H]2CC[C@@H]3CC(c4c(-n5cnnn5)ccc(Cl)c4F)=CC(=O)N32)cc1F (single isomer, unassigned) [ID No. 5, (3S,8aR*)-7-(3-chloro-2-fluoro-6-(1H-tetrazol-1-yl)phenyl)-N-(3-fluoro-4-((2-methoxyethyl)carbamoyl)phenyl)-5-oxo-1,2,3,5,8,8a-hexahydroindolizine-3-carboxamide] | 15.5 nM | 128 nM |
| O=C(Nc1ccc(-c2nc(=O)o[nH]2)cc1)[C@@H]1CCC2CC(c3c(OC(F)F)ccc(Cl)c3F)=CC(=O)N21 (mixture of isomers) [ID No. 38, (3S)-7-(3-Chloro-6-(difluoromethoxy)-2-fluorophenyl)-5-oxo-N-(4-(5-oxo-2,5-dihydro-1,2,4-oxadiazol-3-yl)phenyl)-1,2,3,5,8,8a-hexahydroindolizine-3-carboxamide] | 40.2 nM | 421 nM |

Other lines, results leading:

| IC50 (Factor XIa) | IC50 (human plasma kallikrein) | SMILES |
| --- | --- | --- |
| 6.6 nM | 27.7 nM | O=C(Nc1ccc2ncsc2c1)[C@@H]1CCC2CC(c3c(-n4cnnn4)ccc(Cl)c3F)=CC(=O)N21 (mixture of isomers) [ID No. 55, (3S)—N-(Benzo[d]thiazol-6-yl)-7-(3-chloro-2-fluoro-6-(1H-tetrazol-1-yl)phenyl)-5-oxo-1,2,3,5,8,8a-hexahydroindolizine-3-carboxamide] |
| 9.9 nM | 12.2 nM | CC1C[C@@H](C(=O)Nc2ccc3nccnc3c2)N2C(=O)C=C(c3c(-n4cnnn4)ccc(Cl)c3F)CC12 (mixture of isomers) [ID No. 85, (3S)-7-[3-Chloro-2-fluoro-6-(tetrazol-1-yl)phenyl]-1-methyl-5-oxo-N-quinoxalin-6-yl-2,3,8,8a-tetrahydro-1H-indolizine-3-carboxamide] |
| 30.5 nM | 54.2 nM | O=C(Nc1ccc(-n2nccn2)cc1)[C@@H]1CCC2CC(c3c(-n4cnnn4)ccc(Cl)c3F)=CC(=O)N21 (mixture of isomers) [ID No. 49, (3S)—N-(4-(2H-1,2,3-triazol-2-yl)phenyl)-7-(3-chloro-2-fluoro-6-(1H-tetrazol-1-yl)phenyl)-5-oxo-1,2,3,5,8,8a-hexahydroindolizine-3-carboxamide] |
| 1.2 nM | 107 nM | O=C(O)c1ccc(NC(=O)[C@@H]2CCC3CC(c4c(-n5cnnn5)ccc(Cl)c4F)=CC(=O)N32)cc1F (mixture of isomers) [ID No. 58, 4-[[(3S)-7-[3-Chloro-2-fluoro-6-(tetrazol-1-yl)phenyl]-5-oxo-2,3,8,8a-tetrahydro-1H-indolizine-3-carbonyl]amino]-2-fluoro-benzoic acid] |

— US12286429B2, “5-oxo-1,2,3,5,8,8a-hexahydroindolizine-3-carboxamide derivatives useful as a factor XIa inhibitors” (Janssen Pharmaceutica NV, priority 2021, dated 2025)
